From US11807644B2 (PMV Pharmaceuticals, Inc., priority 2020, dated 2023)

Target: T1, recombinant His-tag Y220C p53 DBD protein (Homo sapiens, UniProt P04637, Y220C)
T1 construct: recombinant His-tag Y220C p53 DBD protein (amino acids #˜94-312)
Experiment: In vitro DNA binding activity assay (TR-FRET): binding of His-tag Y220C p53 DBD to biotin-labeled consensus DNA
Assay type: biochemical
Settings: SC150 = concentration to increase DNA binding by […], His-tag Y220C p53 DBD, biotin-labeled consensus DNA

Compound | Y220C SC150 (μM)
CN1CC[C@@H](Nc2cccc3c2cc(-c2cc(CNc4ccc(S(C)(=O)=O)cc4)cs2)n3CC(F)(F)F)[C@@H](F)C1 [Compound 284B, N-[(3S,4R)-3-fluoro-1-methylpiperidin-4-yl]-2-(4-{[(4-methanesulfonylphenyl)amino]methyl}thiophen-2-yl)-1-(2,2,2-trifluoroethyl)-1H-indol-4-amine] | ** (** = 0.1 μM ≤ SC150 < 0.5 μM)
CN1CCC(Nc2cccc3c2cc(-c2noc(CNC(=O)c4ccn(C)c4)n2)n3CC(F)(F)F)CC1 [Compound 152B, 1-methyl-N-[(3-{4-[(1-methylpiperidin-4-yl)amino]-1-(2,2,2-trifluoroethyl)-1H-indol-2-yl}-1,2,4-oxadiazol-5-yl)methyl]-1H-pyrrole-3-carboxamide] | * (* = 0 μM ≤ SC150 < 0.1 μM)
CN1CCC(Nc2cccc3c2cc(-c2cc(N)[nH]n2)n3CC(F)(F)F)CC1 [Compound 21B, 2-(5-amino-1H-pyrazol-3-yl)-N-(1-methylpiperidin-4-yl)-1-(2,2,2-trifluoroethyl)-1H-indol-4-amine] | **** (**** = 1 μM ≤ SC150 < 10 μM)
CN1CC[C@@H](Nc2cccc3c2cc(-c2noc(CNc4cn[nH]c4)n2)n3CC(F)(F)F)[C@@H](F)C1 [Compound 227B, N-[(3S,4R)-3-fluoro-1-methylpiperidin-4-yl]-2-(5-{[(1H-pyrazol-4-yl)amino]methyl}-1,2,4-oxadiazol-3-yl)-1-(2,2,2-trifluoroethyl)-1H-indol-4-amine] | * (* = 0 μM ≤ SC150 < 0.1 μM)

Other lines, results leading:

Y220C SC150 (μM) | Compound
* (* = 0 μM ≤ SC150 < 0.1 μM) | COC(C)(C)c1ccc(C(=O)NCc2nc(-c3cc4c(N[C@@H]5CCN(C)C[C@@H]5F)cccc4n3CC(F)(F)F)no2)s1 [Compound 439B, N-{[3-(4-{[(3S,4R)-3-fluoro-1-methylpiperidin-4-yl]amino}-1-(2,2,2-trifluoroethyl)-1H-indol-2-yl)-1,2,4-oxadiazol-5-yl]methyl}-5-(2-methoxypropan-2-yl)thiophene-2-carboxamide]
* (* = 0 μM ≤ SC150 < 0.1 μM) | CN1CC[C@@H](Nc2cccc3c2cc(-c2noc(CNc4nccc5ccsc45)n2)n3CC(F)(F)F)[C@@H](F)C1 [Compound 445B, N-[(3S,4R)-3-fluoro-1-methylpiperidin-4-yl]-2-{5-[({thieno[2,3-c]pyridin-7-yl}amino)methyl]-1,2,4-oxadiazol-3-yl}-1-(2,2,2-trifluoroethyl)-1H-indol-4-amine]
* (* = 0 μM ≤ SC150 < 0.1 μM) | CC1(n2ccc(C(=O)NCc3nc(-c4cc5c(N[C@@H]6CCOC[C@@H]6F)cccc5n4CC(F)(F)F)no3)c2)CCOCC1 (stereo in doubt) [Compound 491B]
* (* = 0 μM ≤ SC150 < 0.1 μM) | CN1CC[C@@H](Nc2cccc3c2cc(-c2noc(CNC(=O)c4c[nH]c(C(C)(C)C)c4)n2)n3CC(F)(F)F)[C@@H](F)C1 [Compound 484B, 5-tert-butyl-N-{[3-(4-{1[(3S,4R)-3-fluoro-1-methylpiperidin-4-yl]amino}-1-(2,2,2-trifluoroethyl)-1H-indol-2-yl)-1,2,4-oxadiazol-5-yl]methyl}-1H-pyrrole-3-carboxamide]
* (* = 0 μM ≤ SC150 < 0.1 μM) | CN1CC[C@@H](Nc2cccc3c2cc(-c2noc(CNC(=O)c4cnn(C)c4)n2)n3CC(F)(F)F)[C@@H](F)C1 [Compound 294B, N-{[3-(4-{[(3S,4R)-3-fluoro-1-methylpiperidin-4-yl]amino}-1-(2,2,2-trifluoroethyl)-1H-indol-2-yl)-1,2,4-oxadiazol-5-yl]methyl}-1-methyl-1H-pyrazole-4-carboxamide]

Same assay, conditions: concentration to increase DNA binding by […], incubated at either 27° C. or 29° C. for 60 min

Compound | SC150 (μM)
CNC(=O)c1cccc(-c2cc3c(NC4CCS(=O)(=O)CC4)cccc3n2CC(F)(F)F)c1 [Compound 22A, 3-{4-[(1,1-dioxo-1λ^6-thian-4-yl)amino]-1-(2,2,2-trifluoroethyl)-1H-indol-2-yl}-N-methylbenzamide] | ++ (++ = 2 μM ≤ SC150 < 5 μM)
N#CC1(c2ccc(-c3cc4c(NC5CCS(=O)(=O)CC5)cccc4n3CC(F)(F)F)cc2)CC1 [Compound 26A, 1-(4-{4-[(1,1-dioxo-1λ^6-thian-4-yl)amino]-1-(2,2,2-trifluoroethyl)-1H-indol-2-yl}phenyl)cyclopropane-1-carbonitrile] | ++ (++ = 2 μM ≤ SC150 < 5 μM)
CN1CCC(Nc2cccc3c2cc(-c2ccc(CNC4CCCC4)cc2)n3CC(F)(F)F)CC1 [Compound 40A, 2-{4-[(cyclopentylamino)methyl]phenyl}-N-(1-methylpiperidin-4-yl)-1-(2,2,2-trifluoroethyl)-1H-indol-4-amine] | ++++ (++++ = 10 μM ≤ SC150 < 35 μM)
